Measured values published in patent US12441691B2 (Cytokinetics, Inc., priority 2020, dated 2025).

Tested on: rabbit skeletal myofibrils (fast skeletal myofibrils)
Assay: Activation of fast skeletal myofibrils (PUMA assay, AC1.4)
Format: biochemical
Settings: calcium at pCa25, AC1.4 = concentration at which the compound increased the enzymatic activity
In short: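 In 12 mM PIPES pH 6.8 with 2 mM MgCl2 and 1 mM DTT, Triton-washed rabbit skeletal myofibrils were run at the pCa25 calcium level. Myosin-made ADP was recycled through a PK/LDH coupled system; NADH loss read at 340 nm.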

| Structure (SMILES) | AC1.4 |
| --- | --- |
| CC[C@H](C)[C@H]1C(=O)Nc2ccc(F)cc2CN1C(=O)c1cccc(=O)[nH]1 [Compound 344, (S)-3-((S)-sec-butyl)-7-fluoro-4-(6-oxo-1,6-dihydropyridine-2-carbonyl)-1,3,4,5-tetrahydro-2H-benzo[e][1,4]diazepin-2-one] | 1.91 µM |
| CC[C@H](C)[C@H]1C(=O)Nc2ccc(F)cc2CN1S(N)(=O)=O [Compound 345, (S)-3-((S)-sec-butyl)-7-fluoro-2-oxo-1,2,3,5-tetrahydro-4H-benzo[e][1,4]diazepine-4-sulfonamide] | 2.43 µM |
| CC[C@H](C)[C@H]1C(=O)Nc2ccc(F)cc2CN1C(=O)N1CC(C)(O)C1 [Compound 346, (S)-3-((S)-sec-butyl)-7-fluoro-4-(3-hydroxy-3-methylazetidine-1-carbonyl)-1,3,4,5-tetrahydro-2H-benzo[e][1,4]diazepin-2-one] | 1.57 µM |
| CC[C@H](C)[C@H]1C(=O)Nc2ccc(F)cc2CN1C(=O)N1CC[C@H](O)C1 [Compound 347, (S)-3-((S)-sec-butyl)-7-fluoro-4-((S)-3-hydroxypyrrolidine-1-carbonyl)-1,3,4,5-tetrahydro-2H-benzo[e][1,4]diazepin-2-one] | 3.59 µM |
| CC[C@H](C)[C@H]1C(=O)Nc2ccc(F)cc2CN1C(=O)NC [Compound 348, (S)-3-((S)-sec-butyl)-7-fluoro-N-methyl-2-oxo-1,2,3,5-tetrahydro-4H-benzo[e][1,4]diazepine-4-carboxamide] | 0.72 µM |
| CC[C@H](C)[C@H]1C(=O)Nc2ccc(F)cc2CN1C(=O)N[C@H]1CCN(CCO)C1 [Compound 349, (S)-3-((S)-sec-butyl)-7-fluoro-N-((S)-1-(2-hydroxyethyl)pyrrolidin-3-yl)-2-oxo-1,2,3,5-tetrahydro-4H-benzo[e][1,4]diazepine-4-carboxamide] | 1.57 µM |
| CC[C@H](C)[C@H]1C(=O)Nc2ccc(F)cc2CN1C(=O)N[C@H]1CCN(C)C1 [Compound 350, (S)-3-((S)-sec-butyl)-7-fluoro-N-((S)-1-methylpyrrolidin-3-yl)-2-oxo-1,2,3,5-tetrahydro-4H-benzo[e][1,4]diazepine-4-carboxamide] | 1.11 µM |
| CC[C@H](C)[C@H]1C(=O)Nc2ccc(F)cc2CN1C(=O)NC1CCN(CCO)CC1 [Compound 351, (S)-3-((S)-sec-butyl)-7-fluoro-N-(1-(2-hydroxyethyl)piperidin-4-yl)-2-oxo-1,2,3,5-tetrahydro-4H-benzo[e][1,4]diazepine-4-carboxamide] | 1.17 µM |
| CC[C@H](C)[C@H]1C(=O)Nc2ccc(F)cc2CN1C(=O)N[C@H]1CC[C@H](O)CC1 [Compound 352, (S)-3-((S)-sec-butyl)-7-fluoro-N-((1r,4S)-4-hydroxycyclohexyl)-2-oxo-1,2,3,5-tetrahydro-4H-benzo[e][1,4]diazepine-4-carboxamide] | 0.73 µM |
| CC[C@H](C)[C@H]1C(=O)Nc2ccc(F)cc2CN1C(=O)N[C@H]1CC[C@H](O)C1 [Compound 353, (S)-3-((S)-sec-butyl)-7-fluoro-N-((1S,3S)-3-hydroxycyclopentyl)-2-oxo-1,2,3,5-tetrahydro-4H-benzo[e][1,4]diazepine-4-carboxamide] | 1.76 µM |
| CC[C@H](C)[C@H]1C(=O)Nc2ccc(F)cc2CN1C(=O)N[C@H]1C[C@H](O)C1 [Compound 354, (S)-3-((S)-sec-butyl)-7-fluoro-N-((1r,3S)-3-hydroxycyclobutyl)-2-oxo-1,2,3,5-tetrahydro-4H-benzo[e][1,4]diazepine-4-carboxamide] | 1.59 µM |
| CC[C@H](C)[C@H]1C(=O)Nc2ccc(F)cc2CN1C(=O)N[C@H]1C[C@@H](O)C1 [Compound 355, (S)-3-((S)-sec-butyl)-7-fluoro-N-((1s,3R)-3-hydroxycyclobutyl)-2-oxo-1,2,3,5-tetrahydro-4H-benzo[e][1,4]diazepine-4-carboxamide] | 1.49 µM |
| CC[C@H](C)[C@H]1C(=O)Nc2cc(F)ccc2CN1C(=O)NC1CCN(CCO)CC1 [Compound 356, (S)-3-((S)-sec-butyl)-8-fluoro-N-(1-(2-hydroxyethyl)piperidin-4-yl)-2-oxo-1,2,3,5-tetrahydro-4H-benzo[e][1,4]diazepine-4-carboxamide] | 0.24 µM |
| CC[C@H](C)[C@H]1C(=O)Nc2cc(F)ccc2CN1C(=O)N[C@H]1CCN(C)C1 [Compound 358, (S)-3-((S)-sec-butyl)-8-fluoro-N-((S)-1-methylpyrrolidin-3-yl)-2-oxo-1,2,3,5-tetrahydro-4H-benzo[e][1,4]diazepine-4-carboxamide] | 0.40 µM |
| CC[C@H](C)[C@H]1C(=O)Nc2cc(F)ccc2CN1C(=O)N1CC[C@H](O)C1 [Compound 359, (S)-3-((S)-sec-butyl)-8-fluoro-4-((S)-3-hydroxypyrrolidine-1-carbonyl)-1,3,4,5-tetrahydro-2H-benzo[e][1,4]diazepin-2-one] | 0.77 µM |
| CC[C@H](C)[C@H]1C(=O)Nc2cc(F)ccc2CN1C(=O)NC1CCN(C2COC2)CC1 [Compound 360, (S)-3-((S)-sec-butyl)-8-fluoro-N-(1-(oxetan-3-yl)piperidin-4-yl)-2-oxo-1,2,3,5-tetrahydro-4H-benzo[e][1,4]diazepine-4-carboxamide] | 0.37 µM |

| Structure (SMILES) | AC1.4 |
| --- | --- |
| CC[C@H](C)[C@H]1C(=O)Nc2cncc(F)c2CN1C(C)=O [Compound 361, (S)-4-acetyl-3-((S)-sec-butyl)-6-fluoro-1,3,4,5-tetrahydro-2H-pyrido[3,4-e][1,4]diazepin-2-one] | 1.62 µM |
| CC[C@H](C)[C@H]1C(=O)Nc2cncc(F)c2CN1C(=O)CO [Compound 362, (S)-3-((S)-sec-butyl)-6-fluoro-4-(2-hydroxyacetyl)-1,3,4,5-tetrahydro-2H-pyrido[3,4-e][1,4]diazepin-2-one] | 1.68 µM |
| CC[C@H](C)[C@H]1C(=O)Nc2cncc(F)c2CN1C(=O)COC [Compound 363, (S)-3-((S)-sec-butyl)-6-fluoro-4-(2-methoxyacetyl)-1,3,4,5-tetrahydro-2H-pyrido[3,4-e][1,4]diazepin-2-one] | 2.60 µM |
| CC[C@H](C)[C@H]1C(=O)Nc2cncc(F)c2CN1C(=O)OC [Compound 364, methyl (S)-3-((S)-sec-butyl)-6-fluoro-2-oxo-1,2,3,5-tetrahydro-4H-pyrido[3,4-e][1,4]diazepine-4-carboxylate] | 3.31 µM |
| CC[C@H](C)[C@H]1C(=O)Nc2cncc(F)c2CN1/C(N)=N/C#N [Compound 365, (S,E)-3-((S)-sec-butyl)-N′-cyano-6-fluoro-2-oxo-1,2,3,5-tetrahydro-4H-pyrido[3,4-e][1,4]diazepine-4-carboximidamide] | 0.19 µM |
| CC[C@H](C)[C@H]1C(=O)Nc2cncc(F)c2CN1c1c(N)c(=O)c1=O [Compound 366, 3-amino-4-((S)-3-((S)-sec-butyl)-6-fluoro-2-oxo-1,2,3,5-tetrahydro-4H-pyrido[3,4-e][1,4]diazepin-4-yl)cyclobut-3-ene-1,2-dione] | 0.21 µM |
| CC[C@H](C)[C@H]1C(=O)Nc2cncc(F)c2CN1C(=O)NC [Compound 367, (S)-3-((S)-sec-butyl)-6-fluoro-N-methyl-2-oxo-1,2,3,5-tetrahydro-4H-pyrido[3,4-e][1,4]diazepine-4-carboxamide] | 1.05 µM |
| CC[C@H](C)[C@H]1C(=O)Nc2cncc(F)c2CN1C(=O)Nc1ccn(C)n1 [Compound 368, (S)-3-((S)-sec-butyl)-6-fluoro-N-(1-methyl-1H-pyrazol-3-yl)-2-oxo-1,2,3,5-tetrahydro-4H-pyrido[3,4-e][1,4]diazepine-4-carboxamide] | 0.41 µM |
| CC[C@H](C)[C@H]1C(=O)Nc2cncc(F)c2CN1C(=O)Nc1cc[nH]n1 [Compound 369] | 0.24 µM |
| CC[C@H](C)[C@H]1C(=O)Nc2cncc(F)c2CN1C(=O)N1CC(O)C1 [Compound 370, (S)-3-((S)-sec-butyl)-6-fluoro-4-(3-hydroxyazetidine-1-carbonyl)-1,3,4,5-tetrahydro-2H-pyrido[3,4-e][1,4]diazepin-2-one] | 0.88 µM |
| CC[C@H](C)[C@H]1C(=O)Nc2cncc(F)c2CN1C(=O)COCc1ccccc1 [Compound 371, (S)-4-(2-(benzyloxy)acetyl)-3-((S)-sec-butyl)-6-fluoro-1,3,4,5-tetrahydro-2H-pyrido[3,4-e][1,4]diazepin-2-one] | 0.50 µM |
| CC[C@H](C)[C@H]1C(=O)Nc2ccccc2CN1c1c(N2CCOCC2)c(=O)c1=O [Compound 372, 3-((S)-3-((S)-sec-butyl)-2-oxo-1,2,3,5-tetrahydro-4H-benzo[e][1,4]diazepin-4-yl)-4-morpholinocyclobut-3-ene-1,2-dione] | 0.18 µM |
| CC[C@H](C)[C@H]1C(=O)Nc2cnccc2CN1C(=O)c1cnn(C)c1 [Compound 373, (S)-3-((S)-sec-butyl)-4-(1-methyl-1H-pyrazole-4-carbonyl)-1,3,4,5-tetrahydro-2H-pyrido[3,4-e][1,4]diazepin-2-one] | 0.66 µM |
| CC[C@H](C)[C@H]1C(=O)Nc2cnccc2CN1c1c(NCCO)c(=O)c1=O [Compound 374, 3-((S)-3-((S)-sec-butyl)-2-oxo-1,2,3,5-tetrahydro-4H-pyrido[3,4-e][1,4]diazepin-4-yl)-4-((2-hydroxyethyl)amino)cyclobut-3-ene-1,2-dione] | 0.42 µM |
| CC[C@H](C)[C@H]1C(=O)Nc2cnccc2CN1c1c(N2CC(O)C2)c(=O)c1=O [Compound 375, 3-((S)-3-((S)-sec-butyl)-2-oxo-1,2,3,5-tetrahydro-4H-pyrido[3,4-e][1,4]diazepin-4-yl)-4-(3-hydroxyazetidin-1-yl)cyclobut-3-ene-1,2-dione] | 0.26 µM |
| CC[C@H](C)[C@H]1C(=O)Nc2cnccc2CN1c1c(NC)c(=O)c1=O [Compound 376, 3-((S)-3-((S)-sec-butyl)-2-oxo-1,2,3,5-tetrahydro-4H-pyrido[3,4-e][1,4]diazepin-4-yl)-4-(methylamino)cyclobut-3-ene-1,2-dione] | 0.18 µM |
